Drawing on PubChem BioAssay (NCI), this text covers GI50 and TGI for 35 compounds.

Among the test systems are DLD-1 colon; DMS 114 small cell lung; MDA-MB-231 breast; MDA-N; PC-3 prostate; SNB-78 CNS; T-47D breast; XF 498 CNS; RXF-631 renal.
What all share (assay): inhibition of tumour cell growth, NCI panel, 48 h

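Dose response: 5 concentrations. Exposure: 48 h. Format: 96-well plates. Endpoint: linear interpolation; highest concentration if not reached. Here, GI50 denotes the concentration required for 50% inhibition of growth. TGI: total growth inhibition.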

Take `O=C(O)C(O)C(O)C1[O][Sb][O]C1CO` (stereo not given): the GI50 was above 100 µM with DLD-1 colon; above 43 µM with DMS 114 small cell lung; above 100 µM in the assay on MDA-MB-231 breast; above 100 µM with MDA-N; above 100 µM in the assay on PC-3 prostate; above 81.3 µM in the assay with SNB-78 CNS. In addition, the GI50 in the assay with T-47D breast and in the assay with XF 498 CNS was above 100 µM in each case. Also, the TGI with DLD-1 colon is above 100 µM; with DMS 114 small cell lung, 98.3 µM; in the assay with MDA-MB-231 breast, above 100 µM; with MDA-N, above 100 µM; with PC-3 prostate, above 100 µM; with SNB-78 CNS, above 100 µM. For the same compound, the TGI with T-47D breast and in the assay on XF 498 CNS was above 100 µM throughout.

For the compound `Nc1nc(Cl)cc(NCCCCCCCCCCNc2cc(Cl)nc(N)n2)n1`, the TGI in the assay on DLD-1 colon is above 100 µM; in the assay with RXF-631 renal it was 40.3 µM; in the assay on SNB-78 CNS, above 100 µM; with XF 498 CNS it was 8.86 µM.

For the compound `O=C(O)C1C2CC3CC2CC31` (stereo not given), the TGI in the assay on DMS 114 small cell lung, with RXF-631 renal, in the assay on SNB-78 CNS and in the assay with XF 498 CNS was above 100 µM each time.

As for `c1ccc(CN(Cc2ccccn2)Cn2cccn2)nc1`, the TGI was above 100 µM with DLD-1 colon; 54.6 µM in the assay on DMS 114 small cell lung; above 100 µM in the assay with RXF-631 renal; above 100 µM in the assay with SNB-78 CNS; above 100 µM in the assay on XF 498 CNS.

As for `O=C(NNc1ccc([N+](=O)[O-])cc1)C1OC(CO)C(O)C1O` (stereo not given), the TGI in the assay with DLD-1 colon, in the assay on DMS 114 small cell lung, in the assay with SNB-78 CNS and in the assay with XF 498 CNS was above 100 µM throughout.

Regarding `C/C(=N\N=C(N)N)c1sc(-c2nc(C)c(/C(C)=N/N=C(N)N)s2)nc1C`, the TGI in the assay on DLD-1 colon, with SNB-78 CNS and with XF 498 CNS was above 100 µM in each case.

As for `Cc1cc(Br)cc(C)c1NC(=O)C(=O)C(C(=O)c1ccc(Cl)c(Cl)c1)C1OC(=O)c2ccccc21` (stereo not given), the TGI was 51.2 µM in the assay on DLD-1 colon, above 100 µM in the assay on DMS 114 small cell lung, above 100 µM in the assay with RXF-631 renal and above 100 µM in the assay with SNB-78 CNS.

As for `COc1ccc(-c2nc(N)nc(-c3cc(C)ccc3O)c2Cl)cc1`, the TGI was above 100 µM in the assay on DLD-1 colon; above 100 µM with DMS 114 small cell lung; above 100 µM in the assay on RXF-631 renal; 81.9 µM with SNB-78 CNS; 64.3 µM in the assay on XF 498 CNS.

Consider `OCC(O)C(OC1OC(CO)C(O)C(O)C1O)c1nn(-c2ccc(F)cc2)c2nc3cc(Cl)c(Cl)cc3cc12` (stereo not given), for which the TGI in the assay on DLD-1 colon, in the assay on DMS 114 small cell lung, in the assay on SNB-78 CNS and in the assay with XF 498 CNS was above 100 µM each time.

In the case of `Cc1ccc(NC(=O)CCC(=O)C(C#N)c2ccc(Cl)cc2)cc1C` (stereo not given), the TGI in the assay on DLD-1 colon, with DMS 114 small cell lung, with SNB-78 CNS and in the assay with XF 498 CNS was above 100 µM each time.

As for `Cc1ccc(C)c2sc3cc(=O)ccc-3nc12`, the TGI in the assay on DLD-1 colon, in the assay with DMS 114 small cell lung, with RXF-631 renal and with SNB-78 CNS was above 100 µM in each case.

`Cc1ccc(C)c(NC(=O)CCc2n[nH]c(=S)o2)c1`: the TGI in the assay with DLD-1 colon, in the assay on DMS 114 small cell lung, in the assay with RXF-631 renal, in the assay with SNB-78 CNS and with XF 498 CNS was above 100 µM throughout.

On to `CC(C)c1cc2c(O)c(c1)Cc1cc(C(C)C)cc(c1O)Cc1cc(C(C)C)cc(c1O)Cc1cc(C(C)C)cc(c1O)Cc1cc(C(C)C)cc(c1O)Cc1cc(C(C)C)cc(c1O)C2`, for which the TGI in the assay on DLD-1 colon, in the assay with DMS 114 small cell lung, in the assay on SNB-78 CNS and in the assay on XF 498 CNS was above 100 µM each time.

Regarding `Cc1ccc(NC(=O)NC23CC4CC(CC(F)(C4)C2)C3)cc1`, the TGI in the assay on DLD-1 colon, with DMS 114 small cell lung, in the assay on SNB-78 CNS and in the assay on XF 498 CNS was above 100 µM each time.

On to `C[Si](C)(C)[C@@]1([Se]c2ccccc2)CC[C@@H]1C(=O)c1ccccc1`, for which the TGI with DLD-1 colon, with DMS 114 small cell lung, in the assay with RXF-631 renal and in the assay with SNB-78 CNS was above 100 µM in each case.

For the compound `COc1ccccc1OCC(COC(=O)Nc1ccc(C)cc1)OC(=O)Nc1ccc(C)cc1` (stereo not given), the TGI worked out at 31.8 µM in the assay with DLD-1 colon, 29.3 µM in the assay with DMS 114 small cell lung, 47.2 µM in the assay with RXF-631 renal and 91.6 µM in the assay on SNB-78 CNS.

Turning to `C/C(=N\NC(=S)Nc1ccc([N+](=O)[O-])cc1S(=O)(=O)O)c1ccccn1`, the TGI in the assay on DLD-1 colon is above 100 µM; in the assay with DMS 114 small cell lung it was above 100 µM; with RXF-631 renal, above 100 µM; in the assay with SNB-78 CNS it was above 100 µM; in the assay on XF 498 CNS, 78.7 µM.

Take `O=C(O)c1oc2ccc([N+](=O)[O-])c3c2c1CCC3`: the TGI in the assay with DLD-1 colon, in the assay with DMS 114 small cell lung, with SNB-78 CNS and in the assay on XF 498 CNS was above 100 µM each time.

Take `N#CC(/C(=N\NC(N)=S)C(=O)NC1C2CC3CC(C2)CC1C3)c1ccc(Cl)cc1` (stereo not given): the TGI with DLD-1 colon, in the assay with DMS 114 small cell lung, in the assay with RXF-631 renal, in the assay on SNB-78 CNS and in the assay on XF 498 CNS was above 100 µM each time.

With `COc1cc(C(N)=O)c(OC)c(OC)c1OC`, the TGI in the assay on DLD-1 colon, with DMS 114 small cell lung, with RXF-631 renal and in the assay with SNB-78 CNS was above 100 µM throughout.

On to `Cc1nc(Nc2ccc([N+](=O)[O-])cc2)sc1C(=O)/C=C/c1ccc(N(C)C)cc1`, for which the TGI in the assay on DLD-1 colon, in the assay on DMS 114 small cell lung and in the assay with RXF-631 renal was above 100 µM in each case.

`COC(=N)/C(=C1\OC(N)=C(c2ccc(Cl)cc2)C1=O)c1ccc(Cl)cc1`: the TGI in the assay on DLD-1 colon, in the assay with DMS 114 small cell lung, with SNB-78 CNS and in the assay with XF 498 CNS was above 100 µM each time.

For `CC(=O)Nc1[nH]c(=O)[nH]c(=O)c1N(C(C)=O)C(C)=O`, the TGI in the assay with DLD-1 colon, with DMS 114 small cell lung, in the assay with SNB-78 CNS and in the assay with XF 498 CNS was above 100 µM in each case.

With `C(=C1/CCCCC([n+]2ccccc2)=N1)/c1ccccc1`, the TGI in the assay with DLD-1 colon, in the assay on DMS 114 small cell lung and in the assay with SNB-78 CNS was above 100 µM throughout.

`CC1=NN(C(=O)Cc2ccccc2)C(=O)/C1=C\c1cccc(O)c1`: the TGI in the assay on DLD-1 colon, with DMS 114 small cell lung, in the assay on SNB-78 CNS and in the assay on XF 498 CNS was above 100 µM in each case.

`CCCCCCCCSC(SCCCCCCCC)=C1C(=O)N(c2ccccc2)N=C1C`: the TGI in the assay on DLD-1 colon is 50 µM; in the assay on DMS 114 small cell lung, 63.3 µM; with RXF-631 renal, above 100 µM; in the assay on SNB-78 CNS, above 100 µM.

For the compound `Clc1cccc(C2SCc3nc4ccccc4n32)c1Cl` (stereo not given), the TGI in the assay with DLD-1 colon amounted to 32.4 µM; with DMS 114 small cell lung, 36.4 µM; in the assay on SNB-78 CNS it was 55.6 µM; with XF 498 CNS it was 29.9 µM.

`O=C1C=Cc2noc3cccc1c23`: the TGI in the assay on DLD-1 colon turned out to be 3.13 µM; in the assay with DMS 114 small cell lung, 4.99 µM; with RXF-631 renal it was 27.9 µM; with SNB-78 CNS, 12 µM.

For `CC(C)S(=O)(=O)n1c(N)nc2ccc(/C(=N/O)c3ccccc3)cc21`, the figures for the TGI in the assay on DLD-1 colon, in the assay on DMS 114 small cell lung and with SNB-78 CNS were above 100 µM, 43.8 µM and above 100 µM, respectively.

For `OCC1CC2CC1C1(C2)OCCO1` (stereo not given), the TGI in the assay with DLD-1 colon, with DMS 114 small cell lung, in the assay with RXF-631 renal, in the assay on SNB-78 CNS and with XF 498 CNS was above 100 µM in each case.

Turning to `O=C(O)CNS(=O)(=O)c1ccc(NC(=O)c2cccc([N+](=O)[O-])c2)cc1`, the TGI in the assay with DLD-1 colon, with RXF-631 renal and with XF 498 CNS was above 100 µM throughout.

As for `COc1ccc(C2CC(C)=Nc3c([nH]c(=S)[nH]c3=O)N2)cc1` (stereo not given), the TGI in the assay on DMS 114 small cell lung is 38.8 µM; with RXF-631 renal it was above 100 µM; in the assay with SNB-78 CNS it was above 100 µM; with XF 498 CNS, 59.4 µM.

On to `CCCC/C(C)=N/NC(N)=S`, for which the TGI in the assay with DLD-1 colon, in the assay with DMS 114 small cell lung and with SNB-78 CNS was above 100 µM each time.

`N#CCc1nc2c(s1)C(=O)c1ccccc1C2=O`: the TGI came to 20.1 µM in the assay on DMS 114 small cell lung, 42.7 µM in the assay on RXF-631 renal and 47.7 µM with SNB-78 CNS.

As to `C[P+](C)(CC(F)(F)F)c1ccccc1`, the TGI in the assay on DLD-1 colon, in the assay on DMS 114 small cell lung and with SNB-78 CNS was above 100 µM throughout.
